Assay results reported in patent US8148538B2, “N-alkyl-heterocyclyl carboxamide derivatives” (Bayer Cropscience AG, priority 2005, dated 2012).

How the values were obtained:
[1] = test system: Alternaria brassicae; test: In vivo test on Alternaria brassicae (leaf spot of crucifers), preventive spray on radish plants; settings: under these conditions (radish plants, comparison compound of prior art)
Method: The active ingredient tested is prepared by homogenisation in DMSO (5% of the final volume), acetone (10% of the final volume) and tween 80 10% (5 μl/mg active ingredient). Radish plants (Pernot variety) in starter cups, sown on a 50/50 peat soil-pozzolana substrate and grown at 18-20° C., are treated at the cotyledon stage by spraying with the aqueous suspension described above. Plants, used as controls, are treated with an aqueous solution not containing the active material. After 24 hours, the plants are contaminated by spraying them with an aqueous suspension of Alternaria brassicae spores (40,000 spores per cm^3). The spores are collected from a 12 to 13 days-old culture. The contaminated radish plants are incubated for 6-7 days at about 18° C., under a humid atmosphere. Grading is carried out 6 to 7 days after the contamination, in comparison with the control plants. Under these conditions, good (at least 70%) or total protection is observed at a dose of 500 ppm with the following compounds: 1-2, 2-2, 2-5, 3-2, 3-5, 4-3, 4-4, 4-5, 4-6, 5-4, 5-5, 5-7, 6-1, 7-1, 7-3, 7-4, 7-6, 9-3, 10-3, 10-4, 5, 10-6, 10-8, 11-1, 11-2, 12-2, 13-1, 13-3, 13-5, 15-2, 15-3, 16-4, 19-1, 20-1, 21-1, 21-2, 22-2, 22-3, 23-1, 24-1, 24-2, 25-1, 25-3, 26-2, 27-1, 28-2, 30-1, 30-2, 31-1, 32-1 and 33-2.

[2] = test system: Botrytis cinerea; test: In vivo test on Botrytis cinerea (cucumber grey mould), preventive spray on cucumber plants; settings: under these conditions (cucumber plants, comparison compounds of prior art)
Method: (§1) The active ingredient tested is prepared by homogenisation in DMSO (5% of the final volume), acetone (10% of the final volume) and tween 80 10% (5 μl/mg active ingredient).
(§2) Cucumber plants (Marketer variety) in starter cups, sown on a 50/50 peat soil-pozzolana substrate and grown at 18-20° C., are treated at the cotyledon Z11 stage by spraying with the aqueous suspension described above. Plants, used as controls, are treated with an aqueous solution not containing the active material.
After 24 hours, the plants are contaminated by depositing drops of an aqueous suspension of Botrytis cinerea spores (150,000 spores per ml) on upper surface of the leaves. The spores are collected from a 15-day-old culture and are suspended in a nutrient solution composed of: • 20 g/L of gelatin • 50 g/L of cane sugar • 2 g/L of NH4NO3 • 1 g/L of KH2PO4
The contaminated cucumber plants are settled for 5/7 days in a climatic room at 15-11° C. (day/night) and at 80% relative humidity.

[3] = test system: Pyrenophora teres; test: In vivo test on Pyrenophora teres (barley net blotch), preventive spray on barley plants; settings: under these conditions (barley plants, comparison compound of prior art)
Method: as §1
as §2, with “Barley” for “Cucumber”, “(Express” for “(Marketer”, “12°” for “18-20°”, “1-leaf” for “cotyledon Z11”, “stage (10 cm tall)” for “stage”
After 24 hours, the plants are contaminated by spraying them with an aqueous suspension of Pyrenophora teres spores (12,000 spores per ml). The spores are collected from a 12-day-old culture. The contaminated barley plants are incubated for 24 hours at about 20° C. and at 100% relative humidity, and then for 12 days at 80% relative humidity.

[4] = test system: Sphaerotheca fuliginea; test: In vivo test on Sphaerotheca fuliginea (powdery mildew), preventive spray on gherkin plants; settings: under these conditions (gherkin plants, comparison compounds of prior art)
Method: as §1
as §2, with “Gherkin” for “Cucumber”, “(Vert petit de Paris” for “(Marketer”, “20° C./23°” for “18-20°”, “at” for “at the”
After 24 hours, the plants are contaminated by spraying them with an aqueous suspension of Sphaerotheca fuliginea spores (100 000 spores per ml). The spores are collected from a contaminated plants. The contaminated gerkhin plants are incubated at about 20° C./25° C. and at 60/70% relative humidity.

SMILES | activity against Alternaria brassicae [1] | activity against Botrytis cinerea [2] | activity against Pyrenophora teres [3] | activity against Sphaerotheca fuliginea [4]
CCCCCCCCNC(=O)c1snc(Cl)c1Cl [4-dichloro-N-octylisothiazol-5-carboxamide] | did not show any activity | did not show any activity | – | –
CCC(C)NC(=O)c1cc(C)oc1C (stereo not shown) [N-sec-butyl-2,5-dimethyl-3-furamide] | – | did not show any activity | did not show any activity | did not show any activity
Cc1nnsc1C(=O)NC(C)C [N-isopropyl-4-methyl-1,2,3-thiadiazole-5-carboxamide] | – | did not show any activity | – | did not show any activity
